In patent US5217984A, “1-phenyl substituted-1H, 3H-thiazole [3,4-a] benzimidazoles and pharmaceutical compositions containing them” (priority 1990, dated 1993):
pEC50, pIC50: −log10 of the molar value. Where two headings read alike, the source gives them in different places.

Experiments:
[1] = relative lipophylia (RM) by reverse phase thin layer chromatography; assay type: physicochemical; conditions: rp-tlc, acetone/water 2:1
Procedure: The lipophylic character of the synthesized compounds was evaluated with reverse phase, thin layer chromatography.
The non-polar stationary phase is represented by plates of Merck 60 F254 silanized silica gel, whereas the polar phase consists of an acetone/water mixture (2:1).
The compounds were solubilized in chloroform (3 mg/ml).
The RM values were calculated from the average experimental values of RF, obtained from three chromatograms using the formula: […]
Higher values of RM corresponding to lower values of RF indicate more lipophylic compounds.

HIV = assay: HIV-induced cytopathogenicity in human T4-lymphocyte cell line (CEM); assay type: cell-based; conditions: for pEC50: Human immunodeficiency virus 1, CCRF-CEM, read-out: EC50 (50% reduction of the viral cytopathic effect); for TI50 (therapeutic index): IC50/EC50 ratio
Procedure: (§1) For their effects on HIV-induced cytopathogenicity in human T4 -lymphocyte cell line (CEM), the compounds of the present invention were evaluated according to NIH procedures as described by R. Vince et al., Biochem. Biophys.Res.Comm., 156, 1046, 1988 and by O. S. Weislow et al. J. Natl.Canc. Inst., 81. 577,1988.
It was possible to evaluate for many compounds of the invention:
a) the effective concentration 50% (EC50), which represents the concentration of the tested compound resulting in 50% reduction of the viral cytopathic effect.
c) the therapeutic index TI50 which is determined as the IC50 /EC50 ratio.
Only substances able to cause at least a 50% or greater reduction of viral cytopathic effect are kept in consideration for further investigation.
(§2) The methods, the test conditions, the evaluation criteria of the anti-HIV activity in vitro are described by Weislow, O. W., Kieser, R., Fine, D., Bader, J., Shoemaker, R. H., Boyd, M. R.: New soluble-formazan assay for HIV-1 cytopathic effects: application to high-flux screening of synthetic and natural products for AIDS-antiviral activity. J. Nati, Cancer Inst. 81:577-586,1989.

[2] = tested on: human T4-lymphocyte cell line (CEM); assay: growth inhibition of normal uninfected cells (CEM); assay type: cell-based; conditions: CCRF-CEM, read-out: IC50 (toxic concentration, 50% growth inhibition of normal uninfected cells)
Procedure: as §1
b) the inhibitory concentration 50% (IC50) which represents the toxic concentration of drug resulting in 50% growth inhibition of normal uninfected cells.
as §2

[3] = silanized silica gel Merck 60 F254 plates, average of three chromatograms, read-out: RM (relative lipophylia)

chromatographic logP [1] | SMILES | other results
-0.468 | Fc1ccccc1C1SCc2nc3ccccc3n21 (racemic) [IV, (±) 1-(2-fluorophenyl)-1H,3H-thiazole [3,4-a] benzimidazole] | pEC50 (HIV; HIV-infected CEM cells): 5.12; TI50 (therapeutic index) (HIV): > 16.5; pIC50 ([2]; uninfected CEM cells): < 3.90
-0.434 | Fc1cccc(C2SCc3nc4ccccc4n32)c1 (racemic) [V, (±) 1-(3-fluorophenyl)-1H,3H-thiazole [3,4-a] benzimidazole] | pEC50 (HIV; HIV-infected CEM cells): 5.24; TI50 (therapeutic index) (HIV): 11.8; pIC50 ([2]; uninfected CEM cells): 4.17
 | Fc1cccc(F)c1C1SCc2nc3ccccc3n21 (racemic) [XXII, (±) 1-(2,6-difluorophenyl)-1H,3H-thiazole [3,4-a] benzimidazole] | chromatographic logP [1, 3]: -0.475; pEC50 (HIV): 6.00; TI50 (therapeutic index) (HIV): 80; pIC50 [2]: 4.10
-0.452 | Fc1cccc(Cl)c1C1SCc2nc3ccccc3n21 (racemic) [XXIX, (±) 1-(2-chloro-6-fluorophenyl)-1H,3H-thiazole [3,4-a] benzimidazole] | pEC50 (HIV; HIV-infected CEM cells): 6.22; TI50 (therapeutic index) (HIV): 32.8; pIC50 ([2]; uninfected CEM cells): 4.71
-0.402 | Clc1cccc(Cl)c1C1SCc2nc3ccccc3n21 (racemic) [XXVI, (±) 1-(2,6-dichlorophenyl)-1H,3H-thiazole [3,4-a] benzimidazole] | pEC50 (HIV; HIV-infected CEM cells): 6.59; TI50 (therapeutic index) (HIV): 86.8; pIC50 ([2]; uninfected CEM cells): 4.65
-0.387 | O=[N+]([O-])c1ccc(Cl)cc1C1SCc2nc3ccccc3n21 (racemic) [XXXII, (±) 1-(2-nitro-5-chlorophenyl)-1H,3H-thiazole [3,4-a] benzimidazole] | 
-0.43 | Brc1ccc(C2SCc3nc4ccccc4n32)cc1 (stereo not shown) [III] | 
-0.406 | Brc1cccc(C2SCc3nc4ccccc4n32)c1 (stereo not shown) [II] | 
-0.402 | Clc1ccc(C2SCc3nc4ccccc4n32)cc1 (stereo not shown) [IX] | 
-0.41 | Brc1ccccc1C1SCc2nc3ccccc3n21 (stereo not shown) [I] | 
-0.428 | Clc1cccc(C2SCc3nc4ccccc4n32)c1 (stereo not shown) [VIII] | 
-0.393 | Clc1ccccc1C1SCc2nc3ccccc3n21 (stereo not shown) [VII] | 
-0.412 | Fc1ccc(C2SCc3nc4ccccc4n32)cc1 (stereo not shown) [VI] | 
-0.477 | COc1ccc(C2SCc3nc4ccccc4n32)cc1 (stereo not shown) [XIII] | 
-0.436 | COc1cccc(C2SCc3nc4ccccc4n32)c1 (stereo not shown) [XII] | 
-0.349 | FC(F)(F)c1ccccc1C1SCc2nc3ccccc3n21 (stereo not shown) [XIV] | 
-0.452 | Fc1cccc(C2SCc3nc4ccccc4n32)c1F (stereo not shown) [XIX] | 

chromatographic logP [1] | SMILES | other results
-0.399 | Cc1cccc(C2SCc3nc4ccccc4n32)c1 (stereo not shown) [XI] | 
-0.506 | N#Cc1ccc(C2SCc3nc4ccccc4n32)cc1 (stereo not shown) [XVIII] | 
-0.591 | Oc1cccc(C2SCc3nc4ccccc4n32)c1 (stereo not shown) [XVII] | pEC50 (HIV; HIV-infected CEM cells): 3.94; TI50 (therapeutic index) (HIV): 1.11; pIC50 ([2]; uninfected CEM cells): 3.90
-0.387 | FC(F)(F)c1ccc(C2SCc3nc4ccccc4n32)cc1 (stereo not shown) [XVI] | 
-0.378 | FC(F)(F)c1cccc(C2SCc3nc4ccccc4n32)c1 (stereo not shown) [XV] | 
-0.43 | Fc1ccc(C2SCc3nc4ccccc4n32)cc1F (stereo not shown) [XXIII] | 
-0.355 | Clc1cccc(C2SCc3nc4ccccc4n32)c1Cl (stereo not shown) [XXIV] | 
 | Clc1cc(Cl)cc(C2SCc3nc4ccccc4n32)c1 (stereo not shown) [XXVIII] | chromatographic logP [1, 3]: -0.337
-0.362 | Clc1ccc(C2SCc3nc4ccccc4n32)cc1Cl (stereo not shown) [XXVII] | 
-0.329 | Clc1ccc(C2SCc3nc4ccccc4n32)c(Cl)c1 (stereo not shown) [XXV] | 
 | N#Cc1cccc(C2SCc3nc4ccccc4n32)c1 (stereo not shown) [XXXIII, 1-(3-cyano-phenyl)-1H,3H-thiazole [3,4-a] benzimidazole] | pEC50 (HIV; HIV-infected CEM cells): 5.53; TI50 (therapeutic index) (HIV): 13.1; pIC50 ([2]; uninfected CEM cells): 4.42
-0.414 | O=[N+]([O-])c1cc(C2SCc3nc4ccccc4n32)ccc1Cl (stereo not shown) [XXXI] | 
 | O=[N+]([O-])c1ccccc1C1SCc2nc3ccccc3n21 (stereo not shown) [XXXVI, 1-(2-nitro-phenyl)-1H,3H-thiazole [3,4-a] benzimidazole] | pEC50 (HIV; HIV-infected CEM cells): 4.76; TI50 (therapeutic index) (HIV): 2.16; pIC50 ([2]; uninfected CEM cells): 4.43
-0.423 | O=[N+]([O-])c1ccc(Cl)c(C2SCc3nc4ccccc4n32)c1 (stereo not shown) [XXX] | pEC50 (HIV; HIV-infected CEM cells): 4.80; TI50 (therapeutic index) (HIV): > 3.42; pIC50 ([2]; uninfected CEM cells): < 4.26
-0.452 | Fc1ccc(C2SCc3nc4ccccc4n32)c(F)c1 (stereo not shown) [XX] | 
-0.452 | Cc1ccccc1C1SCc2nc3ccccc3n21 (stereo not shown) [X] | 
